Source: the supplement of paper PMC10307832

How the values were obtained:
Assay in all cases: relative viability (nuclei count vs DMSO), 5 days (fraction); higher = more cells survive
[1] = compound: CC1=NN=C(O1)C2=NN=C(C=C2)N3CCC(CC3)OC4=C(C=CC(=C4)F)Cl + C[C@]1(O)C[C@@H](c2nc(-c3ccc4ccc(-c5ccccc5)nc4c3)c3c(N)nccn32)C1 [Linsitinib] (partner 1 µM)
How it was run: (§1)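 Lung cancer cell lines in 1536-well plates were dosed by pin tool the day after seeding, either with one drug alone or with a fixed anchor-drug dose plus five library-drug doses (not always all listed) in √10 steps. After 5 days, cells were fixed and their nuclei stained in one step (final 0.05% Triton X-100, 1% formaldehyde, 1 ug/ml Hoechst), then counted on 4× images. Relative viability is the nuclei count in treated wells divided by that in vehicle wells. Values are medians of duplicate plates.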

Tosedostat + Navitoclax = compound: CC(C)C[C@@H](C(=O)N[C@H](C(=O)OC1CCCC1)c1ccccc1)[C@H](O)C(=O)NO [Tosedostat] + CC1(C)CCC(c2ccc(Cl)cc2)=C(CN2CCN(c3ccc(C(=O)NS(=O)(=O)c4ccc(N[C@H](CCN5CCOCC5)CSc5ccccc5)c(S(=O)(=O)C(F)(F)F)c4)cc3)CC2)C1 [Navitoclax] (partner 0.5 µM)
How it was run: as §1

[2] = compound: CC1=NN=C(O1)C2=NN=C(C=C2)N3CCC(CC3)OC4=C(C=CC(=C4)F)Cl + C[C@@H](Oc1cc(-c2cnn(C3CCNCC3)c2)cnc1N)c1c(Cl)ccc(F)c1Cl [Crizotinib] (partner 1 µM)
How it was run: as §1

Tosedostat + Palbociclib = compound: CC(C)C[C@@H](C(=O)N[C@H](C(=O)OC1CCCC1)c1ccccc1)[C@H](O)C(=O)NO [Tosedostat] + CC(=O)c1c(C)c2cnc(Nc3ccc(N4CCNCC4)cn3)nc2n(C2CCCC2)c1=O [Palbociclib] (partner 0.5 µM)
How it was run: as §1

| Cell Line | relative viability ([1]; first compound 0.253 µM) | relative viability ([1]; first compound 0.8 µM) | relative viability ([1]; first compound 2.53 µM) | relative viability ([1]; first compound 8 µM) | relative viability (Tosedostat + Navitoclax; first compound 0.02 µM) | relative viability (Tosedostat + Navitoclax; first compound 0.06325 µM) | relative viability (Tosedostat + Navitoclax; first compound 0.2 µM) | relative viability (Tosedostat + Navitoclax; first compound 0.6325 µM) | relative viability (Tosedostat + Navitoclax; first compound 2 µM) | relative viability ([2]; first compound 0.253 µM) | relative viability ([2]; first compound 0.8 µM) | relative viability ([2]; first compound 2.53 µM) | relative viability ([2]; first compound 8 µM) | relative viability (Tosedostat + Palbociclib; first compound 0.02 µM) | relative viability (Tosedostat + Palbociclib; first compound 0.06325 µM) | relative viability (Tosedostat + Palbociclib; first compound 0.2 µM) | relative viability (Tosedostat + Palbociclib; first compound 0.6325 µM) | relative viability (Tosedostat + Palbociclib; first compound 2 µM) |
| --- | --- | --- | --- | --- | --- | --- | --- | --- | --- | --- | --- | --- | --- | --- | --- | --- | --- | --- |
| EBC-1 | 0.549 | 0.558 | 0.623 | 0.57 | 0.42 | 0.473 | 0.423 | 0.356 | 0.305 | 0.216 | 0.171 | 0.179 | 0.202 | – | – | – | – | – |
| EKVX | 0.409 | 0.341 | 0.364 | 0.423 | 0.962 | 0.969 | 0.898 | 0.944 | 0.804 | 0.369 | 0.313 | 0.311 | 0.393 | 0.368 | 0.374 | 0.403 | 0.396 | 0.389 |
| EMC-BAC-2 | 0.742 | 0.755 | 0.77 | 0.637 | 1.11 | 1.2 | 1.15 | 1.14 | 1.19 | 0.583 | 0.648 | 0.632 | 0.545 | 0.516 | 0.522 | 0.536 | 0.484 | 0.489 |
| EPLC-272H | 1.09 | – | 1.18 | 1.05 | 1.19 | 1.3 | 0.826 | 0.775 | 0.576 | 0.877 | – | 0.926 | 1.03 | 0.337 | 0.311 | 0.348 | 0.303 | 0.248 |
| H3255 | 0.697 | 0.719 | 0.718 | 0.716 | 0.464 | 0.546 | 0.404 | 0.388 | 0.471 | 0.548 | 0.646 | 0.538 | 0.625 | 0.303 | 0.32 | 0.342 | 0.331 | 0.319 |
| HARA | 0.705 | 0.394 | 0.451 | 0.308 | 1.17 | 1.2 | 1.1 | 0.894 | 1.15 | 0.747 | 0.327 | 0.271 | 0.294 | 0.325 | 0.255 | 0.262 | 0.232 | 0.265 |
| HCC-15 | 0.608 | 0.58 | 0.553 | 0.578 | 0.772 | 0.729 | 0.684 | 0.659 | 0.57 | 0.42 | 0.405 | 0.374 | 0.36 | 0.759 | 0.688 | 0.572 | 0.708 | 0.653 |
| HCC-44 | 0.423 | 0.484 | 0.484 | 0.384 | 0.849 | 0.912 | 0.949 | 0.946 | 0.539 | 0.451 | 0.392 | 0.431 | 0.373 | 1.05 | 0.982 | 1.01 | 0.983 | 0.928 |
| HCC-78 | 0.455 | 0.417 | 0.459 | 0.403 | 0.717 | 0.808 | 0.736 | 0.868 | 0.948 | 0.294 | 0.297 | 0.288 | 0.311 | 0.502 | 0.46 | 0.41 | 0.486 | 0.495 |
